From US20050074447A1, “Treatment for diabetic microvascular and macrovascular complications” (priority 2003, published 2005)
“Also recorded” adds a separate entry of the source.

Tests used:
rat INS-1 β-cells = experiment: MTS cell viability: protection of INS-1 β-cells from STZ, Example 3; assay type: cell-based; settings: for protection of INS-1 cells from STZ (relative viability): different concentrations of alpha- or gamma-tocopherol, overnight pre-incubation, then 24 hours with STZ 1 mM
Experimental: INS-1 cells were cultured overnight in 96 well culture plates in a humidified incubator at 37° C., in the presence or absence of different concentrations of alpha- or gamma-tocopherol and then in the presence of a combination of equimolar parts of gamma- and alpha-tocopherol (25 μM gamma-, 25 μM alpha-tocopherol). The cells at each condition were then cultured for an additional 24 hours either in the presence or absence of STZ (1 mM). Alpha-tocopherol and gamma-tocopherol concentrations in each well were kept the same as those used in the pre-incubation phase. Cell viability was measured with the MTS assay. Results were normalized and values were expressed relative to control (relative viability).

[1] = tested on: Retinal endothelial cells; experiment: MTS cell viability: protection of retinal endothelial cells from 25 mM glucose and 2 mM palmitate, Example 2; assay type: cell-based, Rhesus monkey; settings: tocopherol used alone; overnight pre-incubation, then 8 hours with 25 mM glucose and 2 mM palmitate
Experimental: Retinal endothelial cells were cultured overnight in 96 well culture plates in a humidified incubator at 37° C., in the presence or absence of either 50 μM of alpha-tocopherol, 50 μM of gamma-tocopherol or 25 μM alpha-tocopherol plus 25 μM gamma-tocopherol when used in combination. The cells at each condition were then cultured for an additional 8 hours either in the presence or absence of 25 mM glucose and 2 mM palmitate. Alpha-tocopherol and gamma-tocopherol concentrations in each well were kept the same as those used in the pre-incubation phase. Cell viability was measured with the MTS assay. Results were normalized and values were expressed relative to basal glucose control (relative viability).

[2] = tested on: Rhesus monkey retinal endothelial cells (ATCC CRL-1780); experiment: MTS cell viability of retinal endothelial cells exposed to hyperglycemia and elevated FFA (palmitate), Example 1; assay type: cell-based; settings: hyperglycemia (25 mM glucose) and elevated FFA (1 and 2 mM palmitate), overnight
Experimental: Rhesus monkey retinal endothelial cells (ATCC CRL-1780) were cultured overnight in 96 well culture plates in a humidified incubator at 37° C., under either basal (5 mM) or hyperglycemic (25 mM) conditions in the absence FFA or in with a 1 and 2 mM palmitate concentration illustrating an elevated FFA environment. At the end of the incubation period endothelial cell viability was measured with the MTS assay and results were expressed relative to the control (5 mM glucose no FFA). The results are shown in Table 1, where error bars represent standard deviations from the mean of triplicate measurements per condition. The relative viability of endothelial cells exposed to hyperglycemia and elevated FFA, as compared to the control, was about 45%. The data in Table 1 illustrates that FFA are cytotoxic to retinal endothelial cells and that their cytotoxicity is enhanced by hyperglycemia. [drawing]

With `CN(N=O)C(=O)N[C@@H]1[C@@H](O)[C@H](O)[C@@H](CO)O[C@@H]1O` [STZ] the “effect of STZ on viability of INS-1 cells” value (rat INS-1 β-cells; STZ 1 mM, 24 hours) was “reduced viability”.
For `Cc1c(C)c2c(c(C)c1O)CC[C@@](C)(CCC[C@H](C)CCC[C@H](C)CCCC(C)C)O2` [alpha-tocopherol], the “relative cell viability (relative to basal glucose control)” value [1] was 40 to 50% and the “protection of INS-1 cells from STZ (relative viability)” value (rat INS-1 β-cells) was “protected from these effects in a dose dependent manner”.
For `Cc1c(O)cc2c(c1C)O[C@](C)(CCC[C@H](C)CCC[C@H](C)CCCC(C)C)CC2` [gamma-tocopherol], the “protection of INS-1 cells from STZ (relative viability)” value (rat INS-1 β-cells) was “protected from these effects in a dose dependent manner; also recorded: more effective than alpha-tocopherol”.
In the case of `CCCCCCCCCCCCCCCC(=O)O` [palmitate], the “relative viability of endothelial cells as compared to the control (5 mM glucose no FFA)” value [2] is reported as “about 45%”.
